EC50 and AC50 data for 41 compounds are collected here from ChEMBL document CHEMBL1201862, “PubChem BioAssay data set” (2004).

As usually defined, the EC50 is the concentration that produces a half-maximal response. For orientation: AC50 means the midpoint of the concentration-response curve, whichever way the signal moves.

The subject of assay [1] is Streptococcus sp. 'group A'. The assay is described as follows: Streptococcus pyogenes SK(-)GAS viability under kanamycin – luminescence, BacTiterGlo, confirmation, counter-screen for streptokinase expression inhibitor project, dose response (AID 1900). Format: functional, organism-based. On the technique in general: The purpose of a counterscreen is to sort out artefacts and off-target activity.

Another assay concerns the target T1, Streptokinase A (Streptococcus pyogenes serotype M1, UniProt P10520).
T1 sequence (P10520 whole entry): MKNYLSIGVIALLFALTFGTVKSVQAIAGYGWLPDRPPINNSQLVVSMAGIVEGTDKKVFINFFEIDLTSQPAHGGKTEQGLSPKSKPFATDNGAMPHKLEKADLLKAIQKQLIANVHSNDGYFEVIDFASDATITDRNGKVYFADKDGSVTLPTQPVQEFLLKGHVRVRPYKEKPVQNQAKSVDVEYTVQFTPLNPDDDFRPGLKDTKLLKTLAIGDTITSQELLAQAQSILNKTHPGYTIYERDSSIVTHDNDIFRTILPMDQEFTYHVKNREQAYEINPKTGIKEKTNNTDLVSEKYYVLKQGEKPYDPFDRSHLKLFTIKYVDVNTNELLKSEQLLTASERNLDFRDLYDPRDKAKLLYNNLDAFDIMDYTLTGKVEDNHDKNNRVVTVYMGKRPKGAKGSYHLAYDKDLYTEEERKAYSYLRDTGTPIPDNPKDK
The assay is described as follows: viability-normalized secreted streptokinase activity reduction – plasminogen activation absorbance, OD405, dose response (AID 1914).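 Also: secreted streptokinase activity via plasminogen activation per viability signal from cell pellet.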 It is filed as functional, Streptococcus pyogenes M1 GAS.

Another assay relates to Streptococcus. The assay is described as follows: GAS UMAA2166 growth inhibition – luminescence, BacTiterGlo, counter-screen for streptokinase expression inhibitor project, dose response (AID 1915).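 Also: potency for reduction of bacterial viability or growth.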 It is filed as functional, organism-based.
Assay [2] addresses T2, RNA-binding protein pos-1 (Caenorhabditis elegans, UniProt G5EF15).
T2 sequence (G5EF15 whole entry): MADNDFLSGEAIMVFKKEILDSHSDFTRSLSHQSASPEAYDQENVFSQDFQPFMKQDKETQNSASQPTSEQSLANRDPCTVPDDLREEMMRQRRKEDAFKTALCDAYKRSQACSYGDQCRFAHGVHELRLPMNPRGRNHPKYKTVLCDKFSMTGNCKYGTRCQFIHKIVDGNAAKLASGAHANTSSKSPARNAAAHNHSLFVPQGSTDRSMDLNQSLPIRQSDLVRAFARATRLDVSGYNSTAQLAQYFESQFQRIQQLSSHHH
The assay is described as follows: disruptors of C. elegans POS-1 RNA interaction – biochemical, fluorescence polarization, dose response (AID 1964).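 Also: purified POS-1 fused to maltose binding protein made in E. coli; potency of compounds blocking POS-1 binding to fluorescent RNA.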 A general note: Fluorescence polarisation rises when a labelled molecule tumbles more slowly, as on binding a larger partner.

The target of assay [3] is T3, Zinc finger protein mex-5 (Caenorhabditis elegans, UniProt Q9XUB2).
T3 sequence (Q9XUB2 whole entry): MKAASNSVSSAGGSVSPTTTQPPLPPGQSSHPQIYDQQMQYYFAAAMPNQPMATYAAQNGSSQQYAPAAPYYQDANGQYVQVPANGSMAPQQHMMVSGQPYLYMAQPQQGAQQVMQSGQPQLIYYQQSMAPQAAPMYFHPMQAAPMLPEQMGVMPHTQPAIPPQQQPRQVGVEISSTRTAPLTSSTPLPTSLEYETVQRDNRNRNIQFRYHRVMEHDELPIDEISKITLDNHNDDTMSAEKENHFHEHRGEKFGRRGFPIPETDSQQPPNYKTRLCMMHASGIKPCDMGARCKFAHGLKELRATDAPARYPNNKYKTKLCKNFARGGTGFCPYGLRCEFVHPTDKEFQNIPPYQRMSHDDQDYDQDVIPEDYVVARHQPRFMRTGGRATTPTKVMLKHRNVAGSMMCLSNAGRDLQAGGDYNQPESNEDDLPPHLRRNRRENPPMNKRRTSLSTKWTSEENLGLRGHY
The assay is described as follows: potency of MEX-5 RNA-binding blockers – biochemical, C. elegans, fluorescence polarization, dose response (AID 1960).

Assay [4] is described as follows: Luminescence Cell-Based Dose Retest to Confirm Inhibitors of Cancer Stem Cells. [Related pubchem assays (depositor defined):AID2717, AID2721]. Format: functional. The note with it: Homo sapiens.
The next assay has as its system INS1. The assay is described as follows: INS-1E survival protection against cytokine death – cell-based, luminescence, retest, dose response (AID 449756).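 Also: cell death triggered by IL-1 beta plus TNF-alpha plus IFN-gamma mixture; protective hits raise ATP signal compared with cytokine alone wells.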 It is filed as functional. The conditions noted are these: Rattus norvegicus.
The nature of assay [5]: NIH-3T3 fibroblast cytotoxicity, dose response, cytotoxicity control, cell-based, fluorescence, Alamar Blue, secondary assay (AID 2327).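 Also: NIH-3T3 mouse fibroblasts cultured with fluconazole at 8 µg/mL.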 Format: functional. (The colour change of resazurin is a common sign of viable cells or microbes.)
Assay [6] can be described thus: fluconazole-exposed Candida albicans growth modulators – fluorescence, retest, confirmation (AID 2467). Format: functional, cell-based.
The subject of a further assay is H4. The assay is described as follows: Luminescence Cell-Based Dose Response HTS to Identify Activators of 5'UTR Stem-Loop Driven Prion Protein mRNA Translation in H4 Neuroglioblastoma Cells. [Related pubchem assays: 1829 (Project Summary), 1814 (Primary HTS)]. The note with it: Homo sapiens. Format: functional.
Assay [7] is described as follows: Luminescence Cell-Based Dose Response HTS to Identify Activators of Luciferase Translation or Activity in H4 […] Cells. [Related pubchem assays: 1829 (Project Summary), 1814 (Primary HTS)]. It is filed as functional.
The target in the next assay is Cytochrome P450 2C9 (Homo sapiens, UniProt P11712).
Chain of Cytochrome P450 2C9 (P11712 whole entry): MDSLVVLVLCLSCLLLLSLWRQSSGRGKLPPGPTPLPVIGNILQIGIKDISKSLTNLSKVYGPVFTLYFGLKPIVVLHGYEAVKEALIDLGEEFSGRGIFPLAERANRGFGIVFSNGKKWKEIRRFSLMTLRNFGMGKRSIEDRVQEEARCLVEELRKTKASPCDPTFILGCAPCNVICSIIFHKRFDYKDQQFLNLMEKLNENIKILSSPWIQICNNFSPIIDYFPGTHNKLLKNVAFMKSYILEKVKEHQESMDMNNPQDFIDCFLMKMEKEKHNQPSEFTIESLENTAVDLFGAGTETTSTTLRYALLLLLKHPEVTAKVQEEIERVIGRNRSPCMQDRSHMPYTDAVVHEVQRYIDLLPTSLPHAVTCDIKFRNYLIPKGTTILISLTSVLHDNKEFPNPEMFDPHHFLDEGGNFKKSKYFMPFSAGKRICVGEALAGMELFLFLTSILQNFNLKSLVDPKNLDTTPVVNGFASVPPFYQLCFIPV

Molecules are shown by their SMILES. Activity calls are given as the source filed them. Rule as the data show it, for most assays here: actives have a measured EC50 and inactives only a lower limit. Residues, ends and D or L forms follow the SMILES beside them. *: point of attachment. Boc = CC(C)(C)OC(=O)*; Bn = c1ccc(C*)cc1

`CCc1ccc(-c2ccc3nnc(SCC(N)=O)n3n2)cc1`: the EC50 in [1] was 1.83 µM (active); at Streptokinase A, > 150 µM (not active); with Streptococcus, 18.6 µM (active).

Consider `C1=C(c2ccccc2)Nc2nnnn2C1c1cccs1` (stereo unspecified), for which the EC50 in [2] and in assay [3] was > 300 µM (not active) each time.

Take `COc1ccc(Nc2nnc(-c3ccccc3)c3ccccc23)cc1C(=O)N1CCCCC1`: in assay [4], the AC50 is 31.2 µM (active).

Consider `CS(=O)(=O)Nc1ccc(C2=NN(C(=O)C3CCCCC3)C(c3cccs3)C2)cc1` (stereo unspecified), for which the 50% effective concentration (EC50) in assay [1] was 4.11 µM (active); on Streptokinase A, > 150 µM (not active); in the assay on Streptococcus, 6.38 µM (active).

For the compound `COc1ccc(C2C(C#N)=C(N)OC3=C2C(=O)CCC3)cc1OC` (stereo unspecified), the EC50 in assay [2] and in [3] was > 300 µM (not active) throughout.

As for `c1nc(NCc2ccc3c(c2)OCO3)c2cc(-c3ccc4c(c3)OCCO4)ccc2n1`, the AC50 in the assay with INS1 is 10.4 µM (active).

With `CCOC(=O)c1c(NC(=S)N2CCN(C)CC2)sc(C)c1-c1ccccc1`, the 50% effective concentration (EC50) on Streptokinase A is 22.4 µM (active).

In the case of `O=C(CN1C(=O)S/C(=C\c2ccccn2)C1=O)Nc1ccccc1`, the 50% effective concentration (EC50) is 89.4 µM (active) in assay [5] and > 38 µM (not active) in [6].

Turning to `Cc1ccccc1Oc1nc(-c2ccccn2)nc2ccccc12`, the results for the EC50 (in assay [1]; at Streptokinase A; in the assay with Streptococcus) were 12.4 µM (active), > 150 µM (not active) and 18.5 µM (active), respectively. Besides, the AC50 in the assay on INS1 is 2.19 µM (active).

For the compound `Cc1ccccc1/C=C/c1nc(O)c2ccccc2n1`, in the assay with H4, the EC50 is 1.13 µM (active).

With `CC1=NN(C(N)=S)C(=O)C1N=Nc1c(Cl)cc([N+](=O)[O-])cc1Cl` (stereo unspecified), the EC50 in assay [2] is > 300 µM (not active); in assay [3] it was 85.9 µM (active).

On to `Cc1nn(-c2ccccc2)c(N2CCCC2)c1/C=C1\N=C(c2ccc(F)cc2)OC1=O`, for which the EC50 in assay [2] was > 300 µM (inconclusive); in [3], 56.7 µM (active).

With `CCn1cc(C(=O)NCc2ccccn2)c(=O)c2cc(S(=O)(=O)N3CCCCC3)ccc21`, the EC50 was 154 µM (active) in assay [2] and 102 µM (active) in [3].

For the compound `COc1ccc(-c2cc(C(=O)N3CC4(C)CC3CC(C)(C)C4)no2)cc1` (stereo unspecified), in assay [4], the AC50 was 0.442 µM (active).

On to `CC(C)CC(NC(=O)C(NC(=O)C(Cc1ccc(OCc2ccccc2)cc1)NC(=O)OC(C)(C)C)C(C)C)C(N)=O` (stereo not drawn) (Boc-Tyr(Bn)-Val-Leu-NH2; configuration not given here), for which, in assay [4], the AC50 is 24.4 µM (active).

For `Cc1noc(/C=C/N(C)C)c1S(=O)(=O)N1CCC(C(=O)O)CC1`, the EC50 in assay [2] and in [3] was > 300 µM (not active) each time.

With `CCCCc1nc(NCc2ccccc2)c(C#N)c2c1CCCC2`, the EC50 in [1] was 9.14 µM (active); at Streptokinase A, 2.96 µM (active); in the assay with Streptococcus it was 19.1 µM (active).

As to `Oc1c(C(c2ccccn2)N2CCC(Cc3ccccc3)CC2)cc(Cl)c2cccnc12` (stereo unspecified), the EC50 was 13.9 µM (inconclusive) in [5] and 1.46 µM (active) in assay [6].

For `CC(C)CCC(CCNCc1ccccn1)c1ccc(Cl)cc1` (stereo unspecified), the EC50 in assay [1] was 7.65 µM (active); on Streptokinase A it was > 150 µM (not active); in the assay on Streptococcus, 132 µM (active).

For `Cn1c(SCc2ccccc2)nnc1-c1ccc2c(c1)OCO2`, the values for the EC50 (in assay [7]; in the assay on H4) were 95.9 µM (active) and 29.8 µM (inconclusive), respectively.

In the case of `C=CCNC(=S)Nc1cc(Cl)ccc1OC`, the EC50 in [2] and in assay [3] was > 300 µM (not active) each time.

Take `COc1ccc(OC)c(C(=O)CSc2nccc(-c3ccc(Br)cc3)n2)c1`: the half-maximal activity concentration (AC50) in assay [4] is 1.33 µM (active).

With `O=C(NCc1nc(-c2ccc(C(F)(F)F)cc2)no1)Nc1ccc(OC(F)(F)F)cc1`, the AC50 in assay [4] is 2.68 µM (active).

Take `CSc1nnc(N2C(=O)C(O)=C(C(=O)c3ccco3)C2c2ccccc2)s1` (stereo unspecified): the results for the EC50 in [2] and in assay [3] were > 300 µM (inconclusive) and 76.6 µM (active), respectively.

In the case of `Brc1ccc(CN2CCN(Cc3c[nH]c4ccccc34)CC2)cc1`, the AC50 in the assay with INS1 was 6.68 µM (active).

Regarding `COC(=O)c1ccc(-n2c(C)cc(/C=N/n3cnnc3)c2C)cc1`, the EC50 in assay [2] and in assay [3] was > 300 µM (not active) each time.

As for `C/C(NCc1ccco1)=C1\C(=O)NC(=O)N(c2ccccc2)C1=O`, the concentration at half-maximal activity (AC50) at Cytochrome P450 2C9 was 39.8 µM (inconclusive).

Consider `O=c1c(F)cn(C2CCCO2)c(=O)n1Cc1c(F)cccc1Cl` (stereo unspecified), for which the EC50 in assay [5] is > 150 µM (inactive); in assay [6] it was > 38 µM (not active).

Regarding `CC(C)CC(=O)NC(N=C(S)Nc1sc2c(c1C#N)CCCC2)C(Cl)(Cl)Cl` (stereo unspecified), the EC50 in assay [1] was 3.06 µM (active); at Streptokinase A, 3.23 µM (active); in the assay with Streptococcus it was 6.32 µM (active). Besides, in assay [4], the AC50 was 0.974 µM (active).

For `COc1ccc(OC)c(-c2csc(NC(=O)c3ccc(F)cc3)n2)c1`, the AC50 in assay [4] is 2.38 µM (active).

As to `COc1cccc(C(=O)NNC(=O)c2ccccc2Br)c1`, the EC50 in assay [5] is > 150 µM (inconclusive); in assay [6], > 38 µM (not active).

With `CC(C)c1ccc(NC(=O)NC(C)c2ccc3c(c2)OCO3)cc1` (stereo unspecified), the EC50 (in assay [1]; on Streptokinase A; in the assay on Streptococcus) was > 150 µM (not active) in each case.

Turning to `CCOC(=O)c1ccc(Oc2nc(NC(C)(C)C)nc(N(C)C)n2)cc1`, the EC50 was > 150 µM (inactive) in [5] and > 38 µM (not active) in assay [6].

Regarding `Cc1ccc(Cn2c(=N)c(C(=O)NCC3CCCO3)cc3c(=O)n4ccccc4nc32)cc1` (stereo unspecified), the 50% effective concentration (EC50) in assay [2] and in [3] was > 300 µM (not active) each time.

Take `COc1cc(/C=N/Nc2ccc(F)cc2F)cc(OC)c1OC`: the EC50 is 20.8 µM (active) in assay [5] and > 38 µM (not active) in [6].

With `O=C1Nc2cc(C(=O)N3CCN(c4ccccn4)CC3)ccc2S/C1=C\c1ccccc1`, the half-maximal effective concentration (EC50) is 3.55 µM (active) in assay [1], > 150 µM (not active) on Streptokinase A and 18.2 µM (active) with Streptococcus.

`O=C(O)c1cc(O)ccc1NC(=O)C(c1ccccc1)c1ccccc1`: the AC50 in assay [4] is > 195 µM (inactive).

For `COC(=O)CCCC1=CC2=CC(=O)C(C)(O)C(=O)C2=CO1` (stereo unspecified), the EC50 was > 300 µM (not active) in [2] and 29 µM (active) in [3].

Take `CC1(OC(=O)c2ccc(Cl)nc2)C(=O)C=C2C=C(C3CC3)OC=C2C1=O` (stereo unspecified): the results for the EC50 in assay [2] and in assay [3] were 15.1 µM (active) and 14.3 µM (active), respectively.

In the case of `COc1ccc(S(=O)(=O)n2ccc(-c3cnc(-c4ccccc4)s3)n2)cc1`, the EC50 was > 120 µM (not active) in assay [7] and 41.2 µM (active) in the assay with H4.

In the case of `Cc1cc(Cl)c2oc(C(=O)N3CCC(O)(c4ccccc4)CC3)c(C)c2c1`, the values for the EC50 (in [1]; on Streptokinase A; in the assay on Streptococcus) were 5.13 µM (active), > 150 µM (not active) and 14.8 µM (active), respectively.
